Test results reported in patent US20250313547A1, “CEREBLON LIGANDS AND BIFUNCTIONAL COMPOUNDS COMPRISING THE SAME” (Arvinas Operations, Inc., priority 2017, published 2025).

Tested on: androgen receptor (AR)
Test: AR ELISA assay (androgen receptor degradation)
Assay type: cell-based
Settings: LNCaP and/or VCaP cells, 5 hours drug treatment; for AR Dmax: % degraded
Experimental: 5. AR ELISA Assay Protocol
Compounds were evaluated in this assay in LNCaP and/or VCaP cells utilizing similar protocols. The protocols used with VCaP cells are described below. The androgen receptor ELISA assay was performed using PathScan AR Sandwich ELISA (Cell Signaling Catalog #12850) according to the following assay steps:
VCaP cells were seeded at 40,000 cells/well at a volume of 100 µL/well in VCaP assay medium [Phenol red free RPMI (Gibco Cat #11835-030); 5% Charcoal Stripped (Dextran treated) FBS (Omega Scientific, Cat #FB-04); 1% penstrep (Life Technologies, Gibco Cat #: 10378-016)] in Corning 3904 plates. The cells were incubated for a minimum of 3 days. Cells were dosed with PROTACs diluted in 0.01% DMSO and the drug treatment was allowed for 5 hours.
AR ELISA (Cell Signaling) was performed as follows. 1×Cell Signaling Cell lysis buffer was made (Catalogue #9803; comes with the kit). Media from the treated wells is aspirated, and 100 μL 1×cell lysis buffer/well is added. The cells were placed on a shaker for 10 minutes at 4° C. Twenty microliters of lysate was transferred to 100 μl of Diluent in ELISA plate ([…]-0.075 μg/ml). The lysate-diluent mixture was shaken for 30 minutes at 37° C. Allow mouse AR antibody, anti-mouse antibody, TMB, and STOP solution to come to room temperature. The 1×ELISA buffer included in kit was made and loaded in the reservoir. Media from the plates was discarded, the ELISA plate tapped hard on paper towel, and washed 4×200 μl ELISA wash buffer using a plate washer.
One-hundred (100) μL/well of mouse AR detection Ab was added; the plates were covered and shaken at 37° C. for 1 hour; media was discarded from the plates, the plates were tapped on a paper towel, washed 4× with 200 μL ELISA wash buffer with a plate washer.
One-hundred (100) μL/well of anti-mouse—HRP conjugated Ab (comes with the kit) was added; the plates were covered and shaken at 37° C. for 30 minutes; the TMB reagent was allowed to come to room temperature; the media was discard from the plate, the plates were tapped on paper towel, washed 4× with 200 μL of ELISA wash buffer; the plates were tapped the plates on paper towel. One-hundred (100) μL of TMB was added and the plates shaken for 2 minutes—while watching for color development. One-hundred (100) μL Stop solution was added when light blue color developed. Plates were shaken and read at 450 nm.

| SMILES | DC50 [µM] | AR Dmax |
| --- | --- | --- |
| CC1Nc2c(OCCCCCN3CCN(c4ccc(C(=O)N[C@H]5C(C)(C)[C@H](Oc6ccc(C#N)c(Cl)c6)C5(C)C)cn4)CC3)cccc2C(=O)N1C1CCC(=O)NC1=O (mixture of isomers) [PROTAC-28, rac-N-((1r,3r)-3-(3-chloro-4-cyanophenoxy)-2,2,4,4-tetramethylcyclobutyl)-6-(4-(5-((3-(2,6-dioxopiperidin-3-yl)-2-methyl-4-oxo-1,2,3,4-tetrahydroquinazolin-8-yl)oxy)pentyl)piperazin-1-yl)nicotinamide] | ≥ 0.1 | C (C <= 50) |
| N#Cc1ccc(O[C@H]2CC[C@H](NC(=O)c3ccc(N4CCC(CN5CCN(c6cc(C(=O)NC7CCC(=O)NC7=O)c(C(=O)O)cc6F)CC5)CC4)nn3)CC2)cc1Cl (stereo partly drawn) [PROTAC-58, 4-(4-((1-(6-(((1r,4r)-4-(3-chloro-4-cyanophenoxy)cyclohexyl)carbamoyl)pyridazin-3-yl)piperidin-4-yl)methyl)piperazin-1-yl)-2-((2,6-dioxopiperidin-3-yl)carbamoyl)-5-fluorobenzoic acid] | 0.01 to 0.1 | B (50 < B <= 75) |
| CC1(C)[C@H](NC(=O)c2ccc(CCCCN3CCC4(CC3)CC(=O)N(C3CCC(=O)NC3=O)C4=O)cc2)C(C)(C)[C@H]1Oc1ccc(C#N)c(Cl)c1 (mixture of isomers) [PROTAC-78, rac-N-((1r,3r)-3-(3-chloro-4-cyanophenoxy)-2,2,4,4-tetramethylcyclobutyl)-4-(4-(2-(2,6-dioxopiperidin-3-yl)-1,3-dioxo-2,8-diazaspiro[4.5]decan-8-yl)butyl)benzamide] | ≥ 0.1 | C (C <= 50) |
| CC1(C)[C@H](NC(=O)c2ccc(N3CCN(CCCCCOc4ccc5ncc(-n6cc(C#N)c(=O)[nH]c6=O)cc5c4)CC3)nc2)C(C)(C)[C@H]1Oc1ccc(C#N)c(Cl)c1 [PROTAC-80, N-((1r,3r)-3-(3-chloro-4-cyanophenoxy)-2,2,4,4-tetramethylcyclobutyl)-6-(4-(5-((3-(5-cyano-2,4-dioxo-3,4-dihydropyrimidin-1(2H)-yl)quinolin-6-yl)oxy)pentyl)piperazin-1-yl)nicotinamide] | ≥ 0.1 | C (C <= 50) |
| CC1(C)[C@H](NC(=O)c2ccc(N3CCN(CCCCCOc4ccc5c(c4)C(=O)N(c4ccc(C#N)[nH]c4=O)C5=O)CC3)nc2)C(C)(C)[C@H]1Oc1ccc(C#N)c(Cl)c1 [PROTAC-42, N-((1r,3r)-3-(3-chloro-4-cyanophenoxy)-2,2,4,4-tetramethylcyclobutyl)-6-(4-(5-((2-(6-cyano-2-oxo-1,2-dihydropyridin-3-yl)-1,3-dioxoisoindolin-5-yl)oxy)pentyl)piperazin-1-yl)nicotinamide] | 0.01 to 0.1 | C (C <= 50) |
| CC1(C)[C@H](NC(=O)c2ccc(N3CCN(CCOCCOc4cccc5c4CN(c4ccc(F)cc4F)C5=O)CC3)nc2)C(C)(C)[C@H]1Oc1ccc(C#N)c(Cl)c1 [PROTAC-40, rac-N-((1r,3r)-3-(3-chloro-4-cyanophenoxy)-2,2,4,4-tetramethylcyclobutyl)-6-(4-(2-(2-((2-(2,4-difluorophenyl)-1-oxoisoindolin-4-yl)oxy)ethoxy)ethyl)piperazin-1-yl)nicotinamide] | ≥ 0.1 | C (C <= 50) |

Now from value to molecule, other results behind:

| DC50 [µM] | SMILES | AR Dmax |
| --- | --- | --- |
| < 0.001 | CC1(C)[C@H](NC(=O)c2ccc(N3CCC(CN4CCN(c5cnn(C6CCC(=O)NC6=O)c(=O)c5)CC4)CC3)cc2)C(C)(C)[C@H]1Oc1ccc(C#N)c(Cl)c1 (mixture of isomers) [PROTAC-62, rac-N-((1r,3r)-3-(3-chloro-4-cyanophenoxy)-2,2,4,4-tetramethylcyclobutyl)-4-(4-((4-(1-(2,6-dioxopiperidin-3-yl)-6-oxo-1,6-dihydropyridazin-4-yl)piperazin-1-yl)methyl)piperidin-1-yl)benzamide] | B (50 < B <= 75) |
| ≥ 0.1 | CC1(C)[C@H](NC(=O)c2ccc(N3CCC(CN4CCN(c5ccc6c(c5)C(=O)N(c5ccc(=O)[nH]c5)C6=O)CC4)CC3)cc2)C(C)(C)[C@H]1Oc1ccc(C#N)c(Cl)c1 [PROTAC-43, N-((1r,3r)-3-(3-chloro-4-cyanophenoxy)-2,2,4,4-tetramethylcyclobutyl)-4-(4-((4-(1,3-dioxo-2-(6-oxo-1,6-dihydropyridin-3-yl)isoindolin-5-yl)piperazin-1-yl)methyl)piperidin-1-yl)benzamide] | C (C <= 50) |
| < 0.001 | Cn1c(-c2ccc(OCCCCCN3CCN(c4ccc(C(=O)N[C@H]5C(C)(C)[C@H](Oc6ccc(C#N)c(Cl)c6)C5(C)C)cc4)CC3)cc2)nn(C2CCC(=O)NC2=O)c1=O (mixture of isomers) [PROTAC-69, rac-N-((1r,3r)-3-(3-chloro-4-cyanophenoxy)-2,2,4,4-tetramethylcyclobutyl)-4-(4-(5-(4-(1-(2,6-dioxopiperidin-3-yl)-4-methyl-5-oxo-4,5-dihydro-1H-1,2,4-triazol-3-yl)phenoxy)pentyl)piperazin-1-yl)benzamide] | B (50 < B <= 75) |
| ≥ 0.1 | CC1(C)[C@H](NC(=O)c2ccc(N3CCC(CN4CCN(c5ccc6c(c5)C(=O)N(c5ccc[nH]c5=O)C6=O)CC4)CC3)cc2)C(C)(C)[C@H]1Oc1ccc(C#N)c(Cl)c1 [PROTAC-44, rac-N-((1r,3r)-3-(3-chloro-4-cyanophenoxy)-2,2,4,4-tetramethylcyclobutyl)-4-(4-((4-(1,3-dioxo-2-(2-oxo-1,2-dihydropyridin-3-yl)isoindolin-5-yl)piperazin-1-yl)methyl)piperidin-1-yl)benzamide] | C (C <= 50) |
| 0.001 to 0.01 | CC1(C)[C@H](NC(=O)c2cnc(N3CCC(CN4CCN(c5ccc(C(=O)NC6CCC(=O)NC6=O)nc5)CC4)CC3)cn2)C(C)(C)[C@H]1Oc1ccc(C#N)c(Cl)c1 (mixture of isomers) [PROTAC-56, rac-N-((1r,3r)-3-(3-chloro-4-cyanophenoxy)-2,2,4,4-tetramethylcyclobutyl)-5-(4-((4-(6-((2,6-dioxopiperidin-3-yl)carbamoyl)pyridin-3-yl)piperazin-1-yl)methyl)piperidin-1-yl)pyrazine-2-carboxamide] | B (50 < B <= 75) |
| < 0.001 | CC1(C)[C@H](NC(=O)c2ccc(N3CCC(CCN4CCN(c5cnn(C6CCC(=O)NC6=O)c(=O)c5)CC4)CC3)cc2)C(C)(C)[C@H]1Oc1ccc(C#N)c(Cl)c1 (mixture of isomers) [PROTAC-63, rac-N-((1r,3r)-3-(3-chloro-4-cyanophenoxy)-2,2,4,4-tetramethylcyclobutyl)-4-(4-(2-(4-(1-(2,6-dioxopiperidin-3-yl)-6-oxo-1,6-dihydropyridazin-4-yl)piperazin-1-yl)ethyl)piperidin-1-yl)benzamide] | A (A > 75) |
| < 0.001 | C=C1CN(C2CCC(=O)NC2=O)C(=O)c2ccc(N3CCN(CC4CCN(c5ccc(C(=O)N[C@H]6C(C)(C)[C@H](Oc7ccc(C#N)c(Cl)c7)C6(C)C)cc5)CC4)CC3)cc21 (stereo partly drawn) [PROTAC-81, N-((1r,3r)-3-(3-chloro-4-cyanophenoxy)-2,2,4,4-tetramethylcyclobutyl)-4-(4-((4-(2-(2,6-dioxopiperidin-3-yl)-4-methylene-1-oxo-1,2,3,4-tetrahydroisoquinolin-6-yl)piperazin-1-yl)methyl)piperidin-1-yl)benzamide] | A (A > 75) |
| ≥ 0.1 | CC1(C)[C@H](NC(=O)c2ccc(N3CCC(CN4CCN(c5ccc6c(c5)C(=O)N(C5CC(=O)NC5=O)C6=O)CC4)CC3)cc2)C(C)(C)[C@H]1Oc1ccc(C#N)c(Cl)c1 (stereo partly drawn) [PROTAC-66, N-((1r,3r)-3-(3-chloro-4-cyanophenoxy)-2,2,4,4-tetramethylcyclobutyl)-4-(4-((4-(2-(2,5-dioxopyrrolidin-3-yl)-1,3-dioxoisoindolin-5-yl)piperazin-1-yl)methyl)piperidin-1-yl)benzamide] | C (C <= 50) |
| 0.001 to 0.01 | Cn1c(-c2cccc(OCCCCCN3CCN(c4ccc(C(=O)N[C@H]5C(C)(C)[C@H](Oc6ccc(C#N)c(Cl)c6)C5(C)C)cc4)CC3)c2)nn(C2CCC(=O)NC2=O)c1=O (mixture of isomers) [PROTAC-67, rac-N-((1r,3r)-3-(3-chloro-4-cyanophenoxy)-2,2,4,4-tetramethylcyclobutyl)-4-(4-(5-(3-(1-(2,6-dioxopiperidin-3-yl)-4-methyl-5-oxo-4,5-dihydro-1H-1,2,4-triazol-3-yl)phenoxy)pentyl)piperazin-1-yl)benzamide] | C (C <= 50) |
